# Experimental data taken from PMC6797481, “Identification of an allosteric binding site on the human glycine transporter, GlyT2, for bioactive lipid analgesics” (eLife, 2019).
# Numbering of substitutions follows the chain as printed.
# Key:
# [1] = target: T1, GlyT2 WT (Homo sapiens, UniProt Q9Y345); parameters: expressed in transfected cells; host or cells: Xenopus laevis oocytes (cRNA injection); settings: cited from earlier work; for IC50 / GlyT2 % max. inhibition: WT GlyT2, previously published; for IC50: mean (95% CI); for GlyT2 % max. inhibition: mean ± SEM; for mechanism of inhibition: versus substrate glycine, ref Mostyn et al., 2019, Wiles et al., 2006
# T1 sequence (Q9Y345 1-797): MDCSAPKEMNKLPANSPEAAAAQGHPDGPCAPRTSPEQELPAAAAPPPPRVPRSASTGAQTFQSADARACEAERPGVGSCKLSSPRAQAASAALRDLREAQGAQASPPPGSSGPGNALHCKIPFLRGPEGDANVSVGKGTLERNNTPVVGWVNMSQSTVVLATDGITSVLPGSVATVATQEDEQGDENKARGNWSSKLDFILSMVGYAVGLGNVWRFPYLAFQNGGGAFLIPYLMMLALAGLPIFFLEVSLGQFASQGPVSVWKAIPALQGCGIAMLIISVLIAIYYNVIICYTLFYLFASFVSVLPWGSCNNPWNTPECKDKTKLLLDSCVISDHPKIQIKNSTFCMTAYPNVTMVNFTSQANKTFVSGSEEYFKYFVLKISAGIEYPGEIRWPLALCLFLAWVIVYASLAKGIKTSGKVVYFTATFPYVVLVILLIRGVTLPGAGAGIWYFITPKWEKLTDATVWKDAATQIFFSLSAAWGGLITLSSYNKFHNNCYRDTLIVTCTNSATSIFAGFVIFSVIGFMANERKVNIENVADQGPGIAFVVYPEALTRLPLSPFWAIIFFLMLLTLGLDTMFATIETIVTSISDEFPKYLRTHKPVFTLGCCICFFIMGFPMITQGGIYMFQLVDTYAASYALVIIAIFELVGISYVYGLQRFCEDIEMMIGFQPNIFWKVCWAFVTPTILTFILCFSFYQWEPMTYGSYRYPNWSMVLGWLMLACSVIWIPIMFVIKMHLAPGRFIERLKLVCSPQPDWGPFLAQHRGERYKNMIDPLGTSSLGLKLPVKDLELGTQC
# [2] = tested on: GlyT1 WT; parameters: method as in earlier work; settings: previously published; cited from earlier work
# [3] = target: T2, GlyT2 P561S mutant (Homo sapiens, UniProt Q9Y345, P561S); test: Glycine transport currents, two electrode voltage clamp, oocytes expressing GlyT2 P561S; format: cell-based; settings: for IC50 / % Max. inhibition: GlyT2 P561S; for % Max. inhibition: mean ± SEM
# T2 construct: expressed in transfected cells; host or cells: Xenopus laevis oocytes (cRNA injection)
# T2 sequence (Q9Y345 1-797 P561S): T1 sequence (Q9Y345 1-797) with P561S
# Experimental: (§1) Glycine was first applied to establish maximal transport current.
# (§2) Compounds were tested for inhibition of glycine transport on Xenopus laevis oocytes expressing mutant GlyT1 and GlyT2 transporters. n values are in brackets, with measurements taken from at least 2 batches of oocytes.
# [4] = target: T3, GlyT2 Y550L mutant (Homo sapiens, UniProt Q9Y345, Y550L); test: Glycine transport currents, two electrode voltage clamp, oocytes expressing GlyT2 Y550L; format: cell-based; settings: for % Max. inhibition: mean ± SEM
# T3 construct: expressed in transfected cells; host or cells: Xenopus laevis oocytes (cRNA injection)
# T3 sequence (Q9Y345 1-797 Y550L): T1 sequence (Q9Y345 1-797) with Y550L
# Experimental: as §1, §2
# [5] = GlyT2 Y550L, greater than maximum concentration applied (footnote a)
Molecule,IC50 [1] [µM],GlyT2 % max. inhibition [1] [%],mechanism of inhibition [1],IC50 [2] [µM],"EC50 ([3]; glycine transport, GlyT2 P561S (TM8)) [µM]","EC50 ([4]; glycine transport, GlyT2 Y550L (EL4)) [µM]",IC50 ([3]; mean (95% CI)) [µM],% Max. inhibition [3],"% Max. inhibition (% inhibition at the highest concentration of inhibitor used) ([4]; GlyT2 Y550L, footnote b)","IC50 [4, 5] [µM]","IC50 ([4]; GlyT2 Y550L, mean (95% CI)) [µM]",% Max. inhibition ([4]; GlyT2 Y550L),IC50 ([3]; greater than maximum concentration applied (footnote a)) [µM]
"CCCCC/C=C\C/C=C\C/C=C\C/C=C\CCCC(=O)NCC(=O)O [N-arachidonyl Glycine, reference compound]",9.1,79.6 ± 2.1,not competitive,> 10,–,–,–,–,–,–,–,–,–
NCC(=O)O [Glycine],–,–,–,–,15.5 ± 4.1,62.2 ± 11.4,–,–,–,–,–,–,–
CCCCCCCC/C=C\CCCCCCCC(=O)N[C@@H](CC(=O)O)C(=O)O [oleoyl l-Aspartate],0.865,76.7 ± 5.3,–,> 10,–,–,2.54,58.2 ± 4.7 (p=0.0954) %,7.0 ± 0.8^b (p=0.0001) %,> 3,–,–,–
"CCCCCCCC/C=C\CCCCCCCC(=O)NCC(=O)O [N-oleoyl Glycine, reference compound]",0.5,66.8 ± 2.8,–,> 10,–,–,0.564,62.1 ± 4.8 (p=0.9242) %,–,–,0.829,34.8 ± 9.1 (p=0.0011) %,–
"CCCCCCCC/C=C\CCCCCCCC(=O)O[C@H](CC(=O)[O-])C[N+](C)(C)C [oleoyl L-Carnitine, reference compound]",0.34,71.5 ± 5.7,–,> 10,–,–,–,31.6 ± 5.2 (p=0.0001) %,–,> 3,–,17.3 ± 1.4 (p=0.0001) %,> 3
oleoyl d-Lysine,0.0483,91.0 ± 1.9,–,> 3,–,–,0.558,76.7 ± 8.1 (p=0.4299) %,–,> 3,–,38.4 ± 10.0 (p=0.0010) %,–
CCCCCCCC/C=C\CCCCCCCC(=O)N[C@@H](Cc1c[nH]c2ccccc12)C(=O)O [oleoyl l-Tryptophan],–,86.2 ± 3.8,–,> 10,–,–,0.318,61.4 ± 4.2 (p=0.0001) %,–,> 3,–,16.5 ± 1.7 (p=0.0001) %,–
CCCCCCCC/C=C\CCCCCCCC(=O)N[C@H](C(=O)O)C(C)C [oleoyl l-Valine],1.17,90.9 ± 5.9,–,> 30,–,–,0.753,94.5 ± 4.7 (p=0.9462) %,–,–,2.93,57.0 ± 5.1 (p=0.0028) %,–
CCCCCCCC/C=C\CCCCCCCC(=O)N[C@@H](CCCCN)C(=O)O [oleoyl l-Lysine],–,86.8 ± 2.4,not competitive,> 3,–,–,0.0692,71.5 ± 4.8 (p=0.0758) %,–,–,0.21,48.2 ± 4.1 (p=0.0001) %,–
